The text below walks through data of patent US20220098203A1 (priority 2018, published 2022).

The target of one test is T1, MAT2A homodimer (Homo sapiens, UniProt P31153).
T1 construct: inferred from the Ni sepharose purification and imidazole elution; made in house; host or cells: SF9 insect cells, recombinant baculovirus (Bac to Bac, pFASTBAC1)
The test can be described thus: MAT2A biochemical assay (liberated phosphate, PiColorLock Gold). The settings on record: Table 5a; MAT2A biochemical assay; read-out: Enzyme Inhibition. The procedure, abridged:
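Readout is liberated phosphate (PiColorLock Gold), stoichiometric with SAM production, quantified against a potassium phosphate standard curve. Enzyme: recombinant MAT2A homodimer from Sf9, equilibrated 60 min at 25 °C with compound before 60 min reaction with substrate mix containing 500 μM ATP and 400 μM L-methionine.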

Test [1] has as its system SAM in HCT116 MTAP-deleted cells. The test can be described thus: Cellular assay of target engagement (SAM), LC-MS/MS. The format is cell-based, human. The settings on record: 72 h, read-out: Cell 72 h SAM Inhibition (MTAP −/−). The method, then:
Measurement of MAT2A activity in cells was made by direct quantitation of the abundance of the product of its enzymatic activity, SAM. Cancer cells were treated with candidate MAT2A inhibitors for a suitable incubation period, and the cells were then lysed using a reagent which quenched any further enzyme activity. Soluble metabolites including SAM were collected and SAM itself was directly measured from the lysate using quantitative LC-MS/MS.
A typical assay was performed using an HCT116 human colon carcinoma cell line which was genetically engineered to delete the MTAP gene (commercially available from Horizon Discovery). […] Cells were plated in 96-well dishes at appropriate cell density. Following 24 hours, cells were then treated with the candidate MAT2A inhibitor. […] Compound was then transferred to a working stock plate in cell culture media by adding 5 μL of compound in DMSO to 495 μL of cell culture media. This working stock was then added to cells via a further 5-fold dilution, by adding 25 μL of working stock to 100 μL of cells in culture media. Following compound addition, cells were incubated at 37° C./5% CO2 for 72 hrs.
To quantitate SAM levels following compound treatment, cells were gently washed once in ammonium carbonate buffer (75 mM at pH 7.4), placed on dry ice, and lysed with metabolite extraction buffer (80% cold methanol and 20% water (v/v) with acetic acid at 1M final concentration with 200 ng/mL deuterated d3-SAM as internal control). Following centrifugation at 4° C. at 3,200 rpm for 30 minutes, the supernatant was collected and stored at −80° C. until analysis by Liquid Chromatography with tandem Mass Spectrometry (LC-MS/MS). LC-MS/MS analysis was performed using an API6500 Mass Spectrometer (Sciex, Framingham, Mass., USA) operating in positive ion spray mode and equipped with a Waters UPLC Acquity (Waters, Milford, Mass., USA) BEH Amide column.

In another test the test system is HCT116 MTAP-/-. The test can be described thus: Inhibition of cellular proliferation (Cell Titer Glo), HCT116 MTAP-/-. Type of test: cell-based, human. The settings on record: 4 days, read-out: 4 Day Relative Growth Inhibition (MTAP −/−). As to the method:
(§1) Test compound impact on cancer cell growth was assessed by treating cancer cells with compound for 4 days and then measuring proliferation using an ATP-based cell proliferation readout (Cell Titer Glo, Promega Corporation).
(§2) In a typical assay an isogenic pair of HCT116 human colon carcinoma cell lines which vary only in MTAP deletion status (HCT116 MTAP+/+ and HCT116 MTAP−/−) were plated in 96-well dishes at appropriate cell density. Following 24 hours, cells were then treated with the candidate MAT2A inhibitor. […] Compound was then transferred to a working stock plate in cell culture media by adding 5 μL of compound in DMSO to 495 μL of cell culture media. This working stock was then added to cells via a further 5-fold dilution, by adding 25 μL of working stock to 100 μL of cells in culture media. Following compound addition, cells were incubated at 37° C./5% CO2 for 4 days.
(§3) The plate was then covered with aluminum foil and shaken for 15 minutes to ensure complete mixing and full cell lysis. […] This luminescence measure was converted to a proliferation index by subtracting from each data point the ATP luminescence signal measured from a bank (no cells) well and dividing by the ATP luminescence signal measured in 0.2% DMSO control well adjusted for signal in blank well.
In general terms: ATP-based viability assays read luminescence as a measure of living cells.

The next test has as its system HCT116 MTAP+/+. Nature of the test: Inhibition of cellular proliferation (Cell Titer Glo), HCT116 MTAP+/+. Type of test: cell-based. The settings on record: Homo sapiens, HCT-116, 96 h, Table 5a, 4 days, read-out: 4 Day Relative Growth Inhibition (MTAP +/+). The method, then: as §1, §2, §3
Where [2] appears, read: Homo sapiens, HCT-116, Table 5a.
Setting [3] is: Homo sapiens, HCT-116, 96 h, Table 5a.
Where [4] appears, read: Table 6, select pairs of compounds.

Where two headings read alike, the source gives them in different places.

T1 sequence (P31153 whole entry): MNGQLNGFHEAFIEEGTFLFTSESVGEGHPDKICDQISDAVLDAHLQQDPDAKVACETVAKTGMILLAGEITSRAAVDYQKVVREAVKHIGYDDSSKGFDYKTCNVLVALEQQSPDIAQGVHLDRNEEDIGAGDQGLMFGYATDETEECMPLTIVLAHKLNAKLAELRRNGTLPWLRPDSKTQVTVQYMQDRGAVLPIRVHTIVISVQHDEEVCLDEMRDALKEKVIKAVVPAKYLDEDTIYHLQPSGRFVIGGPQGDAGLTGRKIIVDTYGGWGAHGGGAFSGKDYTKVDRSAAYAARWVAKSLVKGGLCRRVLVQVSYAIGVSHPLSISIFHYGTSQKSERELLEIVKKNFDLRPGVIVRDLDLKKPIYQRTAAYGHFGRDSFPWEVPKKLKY

In the case of `Cn1cc2cc(N3Cc4ccc(OCC(F)F)nc4N(c4ccc(NC(N)=O)cc4)C3=O)ccc2n1` [Example 412, 1-(4-(7-(2,2-difluoroethoxy)-3-(2-methyl-2H-indazol-5-yl)-2-oxo-3,4-dihydropyrido[2,3-d]pyrimidin-1(2H)-yl)phenyl)urea], the IC50 on MAT2A homodimer was less than 100 nM; in test [1] (setting [2]) it was less than 100 nM; in the test on HCT116 MTAP-/- (setting [3]), less than 100 nM; in the test on HCT116 MTAP+/+ it was more than 1000 nM.
Take `O=C1N(c2ccc3ncsc3c2)Cc2ccc(OCC(F)F)nc2N1c1ccc(Br)cc1` [Example 409, 3-(benzo[d]thiazol-6-yl)-1-(4-bromophenyl)-7-(2,2-difluoroethoxy)-3,4-dihydropyrido[2,3-d]pyrimidin-2(1H)-one]: the IC50 at MAT2A homodimer was less than 100 nM; in test [1] (setting [2]) it was less than 100 nM; in the test on HCT116 MTAP-/- (setting [3]), less than 100 nM; in the test with HCT116 MTAP+/+ it was 100 to 1000 nM.
As to `Cn1cc2cc(N3Cc4ccc(OCC(F)F)nc4N(c4ccc5nscc5c4)C3=O)ccc2n1` [Example 177, 1-(benzo[c]isothiazol-5-yl)-7-(2,2-difluoroethoxy)-3-(2-methyl-2H-indazol-5-yl)-3,4-dihydropyrido[2,3-d]pyrimidin-2(1H)-one], the IC50 was less than 100 nM at MAT2A homodimer, less than 100 nM in test [1] (setting [2]), 100 to 1000 nM in the test on HCT116 MTAP-/- (setting [3]) and more than 1000 nM with HCT116 MTAP+/+.
Consider `Cn1cc2cc(N3Cc4ccc(OCC(F)F)nc4N(c4ccc5oc(N)nc5c4)C3=O)ccc2n1` [Example 411, 1-(2-aminobenzo[d]oxazol-5-yl)-7-(2,2-difluoroethoxy)-3-(2-methyl-2H-indazol-5-yl)-3,4-dihydropyrido[2,3-d]pyrimidin-2(1H)-one], for which the IC50 at MAT2A homodimer is less than 100 nM; in test [1] (setting [2]), less than 100 nM; with HCT116 MTAP-/- (setting [3]) it was less than 100 nM; in the test with HCT116 MTAP+/+, more than 1000 nM.
As for `COc1ccc(N2C(=O)N(c3ccc4ncn(C)c4c3)Cc3ccc(OCC(F)F)nc32)cc1` [Example 139, 7-(2,2-difluoroethoxy)-1-(4-methoxyphenyl)-3-(1-methyl-1H-benzo[d]imidazol-6-yl)-3,4-dihydropyrido[2,3-d]pyrimidin-2(1H)-one], the IC50 is less than 100 nM on MAT2A homodimer, less than 100 nM in test [1] (setting [2]), less than 100 nM in the test with HCT116 MTAP-/- (setting [3]) and more than 1000 nM in the test with HCT116 MTAP+/+.
`[2H]C([2H])([2H])Oc1ccc(N2C(=O)N(c3ccc4ncsc4c3)Cc3ccc(OCC(F)F)nc32)cc1` [Example 102, 3-(benzo[d]thiazol-6-yl)-7-(2,2-difluoroethoxy)-1-(4-(methoxy-d3)phenyl)-3,4-dihydropyrido[2,3-d]pyrimidin-2(1H)-one]: the IC50 on MAT2A homodimer is less than 100 nM; in test [1] (setting [2]), less than 100 nM; in the test on HCT116 MTAP-/- (setting [3]) it was 100 to 1000 nM; with HCT116 MTAP+/+ it was more than 1000 nM.
On to `Cc1nc2ccc(N3Cc4cnc(NCC(F)(F)F)nc4N(c4ccc(-c5nc[nH]n5)cc4)C3=O)cc2s1` [Example 217, 1-(4-(1H-1,2,4-triazol-3-yl)phenyl)-3-(2-methylbenzo[d]thiazol-6-yl)-7-((2,2,2-trifluoroethyl)amino)-3,4-dihydropyrimido[4,5-d]pyrimidin-2(1H)-one], for which the IC50 on MAT2A homodimer was less than 100 nM; in test [1] (setting [2]) it was less than 100 nM; with HCT116 MTAP-/- (setting [3]), less than 100 nM; in the test on HCT116 MTAP+/+, more than 1000 nM.
`O=C1N(c2ccc3ncsc3c2)Cc2ccc(OCC(F)F)nc2N1c1ccc(OC(F)F)cc1` [Example 408, 3-(benzo[d]thiazol-6-yl)-7-(2,2-difluoroethoxy)-1-(4-(difluoromethoxy)phenyl)-3,4-dihydropyrido[2,3-d]pyrimidin-2(1H)-one]: the IC50 on MAT2A homodimer was less than 100 nM; in test [1] (setting [2]) it was less than 100 nM; in the test on HCT116 MTAP-/- (setting [3]), 100 to 1000 nM; in the test with HCT116 MTAP+/+, more than 1000 nM.
Turning to `COc1ccc(N2Cc3cnc(NCC(F)(F)F)nc3N(c3ccc(C4CC4)cc3)C2=O)cc1` [Example 242, 1-(4-cyclopropylphenyl)-3-(4-methoxyphenyl)-7-((2,2,2-trifluoroethyl)amino)-3,4-dihydropyrimido[4,5-d]pyrimidin-2(1H)-one], the IC50 was less than 100 nM on MAT2A homodimer, 100 to 1000 nM in test [1] (setting [2]), 100 to 1000 nM with HCT116 MTAP-/- (setting [3]) and more than 1000 nM with HCT116 MTAP+/+.
Take `Cn1cc2cc(N3Cc4ccc(OCC(F)F)nc4N(c4ccc(O)cc4)C3=O)ccc2n1` [Example 295, 7-(2,2-difluoroethoxy)-1-(4-hydroxyphenyl)-3-(2-methyl-2H-indazol-5-yl)-3,4-dihydropyrido[2,3-d]pyrimidin-2(1H)-one]: the IC50 at MAT2A homodimer was less than 100 nM; in test [1] (setting [2]), less than 100 nM; in the test on HCT116 MTAP-/- (setting [3]), 100 to 1000 nM; with HCT116 MTAP+/+, more than 1000 nM.
On to `[2H]C([2H])([2H])Oc1ccc(N2C(=O)N(c3ccc4nn(C)c(OC)c4c3)Cc3ccc(OCC(F)F)nc32)cc1` [Example 104, 7-(2,2-difluoroethoxy)-3-(3-methoxy-2-methyl-2H-indazol-5-yl)-1-(4-(methoxy-d3)phenyl)-3,4-dihydropyrido[2,3-d]pyrimidin-2(1H)-one], for which the IC50 is less than 100 nM at MAT2A homodimer, less than 100 nM in test [1] (setting [2]), less than 100 nM with HCT116 MTAP-/- (setting [3]) and 100 to 1000 nM in the test with HCT116 MTAP+/+.
In the case of `CCOc1ccc2c(n1)N(c1ccc(OC(F)(F)F)nc1)C(=O)N(c1ccc3nn(C)cc3c1)C2` [Example 147, 7-ethoxy-3-(2-methyl-2H-indazol-5-yl)-1-(6-(trifluoromethoxy)pyridin-3-yl)-3,4-dihydropyrido[2,3-d]pyrimidin-2(1H)-one], the IC50 at MAT2A homodimer is less than 100 nM; in test [1] (setting [2]), 100 to 1000 nM; in the test with HCT116 MTAP-/- (setting [3]), 100 to 1000 nM; in the test on HCT116 MTAP+/+, more than 1000 nM.
Consider `CCOc1ccc2c(c1)N(c1ccc(OC(F)F)cc1)C(=O)N(c1ccc3nn(C)cc3c1)C2` [Example 287, 1-[4-(difluoromethoxy)phenyl]-7-ethoxy-3-(2-methyl-2H-indazol-5-yl)-1,2,3,4-tetrahydroquinazolin-2-one], for which the IC50 was less than 100 nM at MAT2A homodimer, 100 to 1000 nM in test [1] (setting [2]), 100 to 1000 nM in the test on HCT116 MTAP-/- (setting [3]) and 100 to 1000 nM in the test on HCT116 MTAP+/+.
As for `COc1ccc(N2C(=O)N(c3ccc4nn(C)cc4c3)Cc3ccc(SCC(F)(F)F)nc32)cc1` [Example 161, 1-(4-methoxyphenyl)-3-(2-methyl-2H-indazol-5-yl)-7-((2,2,2-trifluoroethyl)thio)-3,4-dihydropyrido[2,3-d]pyrimidin-2(1H)-one], the IC50 on MAT2A homodimer is less than 100 nM; in test [1] (setting [2]), 100 to 1000 nM; in test [1] (setting [4]), 100 to 1000 nM; in the test with HCT116 MTAP-/- (setting [3]) it was 100 to 1000 nM; with HCT116 MTAP-/- (setting [4]), 100 to 1000 nM; with HCT116 MTAP+/+, more than 1000 nM.
`Cn1cc2cc(N3Cc4ccc(NCC(F)(F)F)cc4N(c4ccc(OC(F)F)cc4)C3=O)ccc2n1` [Example 288]: the IC50 is less than 100 nM at MAT2A homodimer, 100 to 1000 nM in test [1] (setting [2]), 100 to 1000 nM in the test with HCT116 MTAP-/- (setting [3]) and more than 1000 nM in the test on HCT116 MTAP+/+.
Take `Cn1cnc2ccc(N3Cc4cnc(NCC(F)(F)F)nc4N(c4ccc(-c5nc[nH]n5)cc4)C3=O)cc21` [Example 218, 1-(4-(1H-1,2,4-triazol-3-yl)phenyl)-3-(1-methyl-1H-benzo[d]imidazol-6-yl)-7-((2,2,2-trifluoroethyl)amino)-3,4-dihydropyrimido[4,5-d]pyrimidin-2(1H)-one]: the IC50 at MAT2A homodimer is less than 100 nM; in test [1] (setting [2]), 100 to 1000 nM; in the test on HCT116 MTAP-/- (setting [3]) it was 100 to 1000 nM; in the test with HCT116 MTAP+/+ it was more than 1000 nM.
